System: 233499-124-R-J3-PDC complex spheroid growth
Assay: Anticancer human tumor 233499-124-R-J3-PDC patient-derived colon adenocarcinoma cell line growth inhibition [AhR]
Conditions: for IC50: curve of first compound; for viability, T/C: stronger effect = lower value
Text: Multicellular complex tumor spheroid response to aryl hydrocarbon receptor antagonists in combination with a variety of drugs and investigational agents in selected tumor cell lines
The current study was undertaken to assess response to aryl hydrocarbon receptor antagonists in combination with standard-of-care drugs and investigational agents in solid tumor complex spheroid models. Complex spheroids include a stromal component modeled by human endothelial cells (HUVEC) and fibroblasts modeled by human mesenchymal stem cells (MSCs). The concentration ranges selected for each drug and investigational agent were based upon clinically achievable concentrations if the clinical Cmax of the agent was known.
Compounds. The drugs and investigational agents: BAY 2416964 (NSC825713), GNF351 (NSC835774), CH-223191 (NSC835775), CPI-455 (NSC825282), aza-TdCyd (NSC777586), decitabine (NSC127716), belinostat (NSC758774), entinostat (NSC756642), pevonedistat (NSC761192), tazemetostat (NSC777109), talazoparib (NSC765396), olaparib (NSC753686), selinexor (NSC780203), nedisertib (M3814, NSC802822), bortezomib (NSC756655), venetoclax (NSC766270), doxorubicin (NSC123127), elimusertib (BAY189344, NSC800525), ceralasertib (AZD6738, NSC777638), TAK-243 (NSC785004), alisertib (NSC759677), etoposide (NSC141540), topotecan (NSC609699), eribulin (NSC707389), gemcitabine (NSC613327), carboplatin (NSC241240), cisplatin (NSC119875), and SN-38 (NSC673596) were obtained from the National Cancer Institute (NCI) Developmental Therapeutics Program Chemical Repository (32). The FDA-approved anticancer drug set is available from the Developmental Therapeutics Program at https://dtp.cancer.gov/organization/dscb/obtaining/available plates.htm. […] The stock solutions were prepared in dimethyl sulfoxide (DMSO, Sigma-Aldrich, St. Louis, MO, cat. D2650), except for the platinum compounds which were prepared in saline (Quality Biological, Gaithersburg, MD, cat. 114-055-101), at 800-fold the tested concentration and stored at -70 degrees C prior to their use. All drugs and investigational agents were tested over a range starting from a high concentration at or near the clinical Cmax and decreasing in half-log increments. If the clinical Cmax for an agent had not been determined, the highest concentration tested was 10 microM (Table 1).
Cell Culture. All cells were maintained in an incubator at 37 degrees C and 5% CO2 with 95% humidity. The PDC lines were cultured according to standard operating procedures established by the NCI PDMR (https://pdmr.cancer.gov). Briefly, all PDCs were thawed and cultured in Matrigel-coated flasks prepared with a working solution of 1X Ham's F-12 nutrient mix, without supplementation (Invitrogen, Waltham, MA, cat. 11765054), 100 U/mL penicillin-streptomycin (Invitrogen, cat. 15140122), and 2.5% Matrigel (Corning Inc., Corning, NY, cat. 354248) for the first three passages. All PDCs were cultured in complete DMEM/F-12 media containing advanced DMEM/F-12 (Invitrogen, cat. 12634028), 4.9% defined fetal bovine serum, heat inactivated (HyClone Laboratories Inc., Logan, UT, cat. SH30070.03HI), 389 ng/mL hydrocortisone (Sigma-Aldrich, cat. H4001), 9.7 ng/mL human EGF recombinant protein (Invitrogen, cat. PHG0313), 23.4 microg/mL adenine (Sigma-Aldrich, cat. A2786), 97.3 U/mL penicillin-streptomycin (Invitrogen, cat. 15140122), 1.9 mM L-glutamine (Invitrogen, cat. 25030081), and 9.7 microM Y-27632 dihydrochloride (Tocris Bioscience, Bristol, United Kingdom, cat. 1254). The PDCs were cultured in complete DMEM/F12 media without 10 microM Y-27632 dihydrochloride for at least two passages prior to the screen. The established cell lines NCI-H1341 and […] were cultured in DMEM/F-12, HEPES (Invitrogen, cat. 11330032), 5% defined fetal bovine serum (HyClone Laboratories Inc., cat. SH30070.03), ITS premix universal culture supplement [insulin (5 microg/mL), transferrin (5 microg/mL), and selenious acid (5 ng/mL)] […]
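Also: spheroids exposed to agents for seven days before reading.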

Compound `CC1COCCN1c1cc(-c2ccnn2C)c2ccnc(-c3ccn[nH]3)c2n1` (stereo not given) + Cc1cncc(-c2nc(NCCc3c[nH]c4ccccc34)c3ncn(C(C)C)c3n2)c1 has an IC50 (second compound 0.1 µM) of 546 nM, an IC50 (second compound 0.316 µM) of 525 nM and an IC50 (second compound 1 µM) of over 1000 nM. For the same compound, the IC50 (second compound 3.16 µM) was 293 nM, the IC50 (second compound 10 µM) was under 3.16 nM and the viability, T/C (second compound 0.1 µM, first compound 0.00316 µM) was 106%. For the same compound, the viability, T/C (second compound 0.1 µM, first compound 0.01 µM) was 89.7%, the viability, T/C (second compound 0.1 µM, first compound 0.0316 µM) was 102% and the viability, T/C (second compound 0.1 µM, first compound 0.1 µM) was 74.6%. It also gave a viability, T/C (second compound 0.1 µM, first compound 0.316 µM) of 62.6%, a viability, T/C (second compound 0.1 µM, first compound 1 µM) of 37.8% and a viability, T/C (second compound 0.316 µM, first compound 0.00316 µM) of 85.3%. It also gave a viability, T/C (second compound 0.316 µM, first compound 0.01 µM) of 92.6%, a viability, T/C (second compound 0.316 µM, first compound 0.0316 µM) of 76.2% and a viability, T/C (second compound 0.316 µM, first compound 0.1 µM) of 81.1%. The viability, T/C (second compound 0.316 µM, first compound 0.316 µM) was 60.2%, the viability, T/C (second compound 0.316 µM, first compound 1 µM) was 35.8% and the viability, T/C (second compound 1 µM, first compound 0.00316 µM) was 66.5%. The viability, T/C (second compound 1 µM, first compound 0.01 µM) was 63%, the viability, T/C (second compound 1 µM, first compound 0.0316 µM) was 69.3% and the viability, T/C (second compound 1 µM, first compound 0.1 µM) was 72.9%. The viability, T/C (second compound 1 µM, first compound 0.316 µM) was 53.5%, the viability, T/C (second compound 1 µM, first compound 1 µM) was 50.2% and the viability, T/C (second compound 3.16 µM, first compound 0.00316 µM) was 66.7%. The viability, T/C (second compound 3.16 µM, first compound 0.01 µM) was 74.1%, the viability, T/C (second compound 3.16 µM, first compound 0.0316 µM) was 73.1% and the viability, T/C (second compound 3.16 µM, first compound 0.1 µM) was 63.8%. It also gave a viability, T/C (second compound 3.16 µM, first compound 0.316 µM) of 49.4%, a viability, T/C (second compound 3.16 µM, first compound 1 µM) of 40.2% and a viability, T/C (second compound 10 µM, first compound 0.00316 µM) of 3.13%. For the same compound, the viability, T/C (second compound 10 µM, first compound 0.01 µM) was 3.32%, the viability, T/C (second compound 10 µM, first compound 0.0316 µM) was 3.34% and the viability, T/C (second compound 10 µM, first compound 0.1 µM) was 4.58%. For the same compound, the viability, T/C (second compound 10 µM, first compound 0.316 µM) was 3.11% and the viability, T/C (second compound 10 µM, first compound 1 µM) was 5.96%.
Compound `O=C(C=Cn1cnc(-c2cc(C(F)(F)F)cc(C(F)(F)F)c2)n1)NNc1cnccn1` + Cc1ccccc1N=Nc1ccc(NC(=O)c2ccnn2C)c(C)c1 has an IC50 (second compound 0.1 µM) of over 3000 nM, an IC50 (second compound 0.316 µM) of over 3000 nM and an IC50 (second compound 1 µM) of over 3000 nM. The IC50 (second compound 3.16 µM) was over 3000 nM, the IC50 (second compound 10 µM) was over 3000 nM and the viability, T/C (second compound 0.1 µM, first compound 0.00949 µM) was 109%. The viability, T/C (second compound 0.1 µM, first compound 0.03 µM) was 91.2%, the viability, T/C (second compound 0.1 µM, first compound 0.0949 µM) was 110% and the viability, T/C (second compound 0.1 µM, first compound 0.3 µM) was 86.7%. For the same compound, the viability, T/C (second compound 0.1 µM, first compound 0.949 µM) was 96%, the viability, T/C (second compound 0.1 µM, first compound 3 µM) was 61% and the viability, T/C (second compound 0.316 µM, first compound 0.00949 µM) was 104%. The viability, T/C (second compound 0.316 µM, first compound 0.03 µM) was 113%, the viability, T/C (second compound 0.316 µM, first compound 0.0949 µM) was 111% and the viability, T/C (second compound 0.316 µM, first compound 0.3 µM) was 96.4%. The viability, T/C (second compound 0.316 µM, first compound 0.949 µM) was 87.3%, the viability, T/C (second compound 0.316 µM, first compound 3 µM) was 76.8% and the viability, T/C (second compound 1 µM, first compound 0.00949 µM) was 97.8%. For the same compound, the viability, T/C (second compound 1 µM, first compound 0.03 µM) was 98.3%, the viability, T/C (second compound 1 µM, first compound 0.0949 µM) was 116% and the viability, T/C (second compound 1 µM, first compound 0.3 µM) was 100%. The viability, T/C (second compound 1 µM, first compound 0.949 µM) was 78%, the viability, T/C (second compound 1 µM, first compound 3 µM) was 77.8% and the viability, T/C (second compound 3.16 µM, first compound 0.00949 µM) was 98%. For the same compound, the viability, T/C (second compound 3.16 µM, first compound 0.03 µM) was 99.1%, the viability, T/C (second compound 3.16 µM, first compound 0.0949 µM) was 92.8% and the viability, T/C (second compound 3.16 µM, first compound 0.3 µM) was 86.8%. The viability, T/C (second compound 3.16 µM, first compound 0.949 µM) was 93.2%, the viability, T/C (second compound 3.16 µM, first compound 3 µM) was 70.8% and the viability, T/C (second compound 10 µM, first compound 0.00949 µM) was 101%. For the same compound, the viability, T/C (second compound 10 µM, first compound 0.03 µM) was 85%, the viability, T/C (second compound 10 µM, first compound 0.0949 µM) was 85.3% and the viability, T/C (second compound 10 µM, first compound 0.3 µM) was 108%. The viability, T/C (second compound 10 µM, first compound 0.949 µM) was 85.6% and the viability, T/C (second compound 10 µM, first compound 3 µM) was 50.2%.
